Results as given in ChEMBL document CHEMBL6182945, “MMAE-Based Peptide-Drug Conjugates Targeting GPC3 for Precision Chemoradiotherapy in Hepatocellular Carcinoma” (J Med Chem, 2025).
The source made the active and inactive calls. The calls are words filed in the database; no cut-off is given here. Starred links: 1 amine or outer side, 2 acyl side, 3 side chain; linkers in the order of their positions; H or OH if unused. Positions of bridges follow the written chain, without caps; N, C: chain ends. Non-standard residues stand in square brackets, D forms with d. Residues, ends and D or L forms follow the SMILES beside them. Chains are numbered I, II in the order given. *: point of attachment. Hexanoyl(6-succinimido-3yl) = O=C1CC([*:1])C(=O)N1CCCCCC(=O)[*:2]; Dolaproine = CO[C@@H]([C@@H]1CCCN1)[C@@H](C)C(=O)O; Dil = CC[C@H](C)[C@H](NC)[C@@H](CC(=O)O)OC; PABC = O=C(OCc1ccc(N[*:1])cc1)[*:2]; X1 = C[C@@H](N*)[C@@H](O)c1ccccc1; Cit = NC(=O)NCCC[C@H](N)C(=O)O; NMeV = CN[C@H](C(=O)O)C(C)C

How the values were obtained:
[1] = target: Glypican-3 (Homo sapiens) (UniProt P51654); assay: Binding affinity to GPC3 in human Huh-7 cells assessed as increase in fluorescence (red color) by immunofluorescence staining based assay; type: cell-based
[2] = target: Glypican-3 (Homo sapiens) (UniProt P51654); assay: Binding affinity to GPC3 in human HeLa cells assessed as increase in fluorescence (red color) measured after 4 hrs incubation by immunofluorescence staining based assay; type: cell-based
[3] = target: Glypican-3 (Homo sapiens) (UniProt P51654); assay: Binding affinity to GPC3 in human LX-2 cells assessed as increase in fluorescence (red color) measured after 4 hrs incubation by immunofluorescence staining based assay; type: cell-based
[4] = target: Glypican-3 (Homo sapiens) (UniProt P51654); assay: Binding affinity to GPC3 in human Hep3B cells assessed as increase in fluorescence (red color) by immunofluorescence staining based assay; type: cell-based
LX-2 = assay: Antiproliferative activity against GPC3-negative human LX-2 cells assessed as cytotoxicity measured after 72 hrs by MTT assay; type: functional, cell-based; conditions: LX-2, 72 h
Hep 3B2 = assay: Antiproliferative activity against GPC3-positive human Hep3B cells assessed as cytotoxicity measured after 72 hrs by MTT assay; type: functional, cell-based
HeLa = assay: Antiproliferative activity against GPC3-negative human HeLa cells assessed as cytotoxicity measured after 72 hrs by MTT assay; type: functional, cell-based
Huh-7 = assay: Antiproliferative activity against GPC3-positive human Huh-7 cells assessed as cytotoxicity measured after 72 hrs by MTT assay; type: functional, cell-based; conditions: Huh-7, 72 h

Sequence of Glypican-3 (Homo sapiens) (P51654 25-358 limits assumed): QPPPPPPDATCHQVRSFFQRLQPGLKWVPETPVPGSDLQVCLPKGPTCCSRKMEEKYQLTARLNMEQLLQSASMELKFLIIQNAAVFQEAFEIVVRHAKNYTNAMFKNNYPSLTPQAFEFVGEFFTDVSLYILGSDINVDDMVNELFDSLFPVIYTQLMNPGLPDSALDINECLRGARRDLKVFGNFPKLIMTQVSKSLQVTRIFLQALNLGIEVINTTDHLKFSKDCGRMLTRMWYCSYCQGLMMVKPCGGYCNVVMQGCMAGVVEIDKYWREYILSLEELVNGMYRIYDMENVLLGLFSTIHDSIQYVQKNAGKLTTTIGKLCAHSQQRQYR
Sequence of Glypican-3 (Homo sapiens) (P51654 359-554 limits assumed): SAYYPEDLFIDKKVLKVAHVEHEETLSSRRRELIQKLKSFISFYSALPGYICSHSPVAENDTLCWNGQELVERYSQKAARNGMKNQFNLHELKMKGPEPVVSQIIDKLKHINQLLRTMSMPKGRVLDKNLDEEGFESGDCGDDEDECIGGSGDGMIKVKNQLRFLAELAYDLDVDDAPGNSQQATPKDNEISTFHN

Structure (SMILES)	Activity [1]	Activity [2]	Activity [3]	Activity [4]	IC50 (LX-2)	IC50 (Hep 3B2)	IC50 (HeLa)	IC50 (Huh-7)
CC[C@H](C)[C@@H]([C@@H](CC(=O)N1CCC[C@H]1[C@H](OC)[C@@H](C)C(=O)N[C@H](C)[C@@H](O)c1ccccc1)OC)N(C)C(=O)[C@@H](NC(=O)[C@H](C(C)C)N(C)C(=O)OCc1ccc(NC(=O)[C@H](CCCNC(N)=O)NC(=O)[C@@H](NC(=O)CCCCCN2C(=O)CC(SC[C@H](NC(=O)CCCCC[N+]3=C(/C=C/C=C/C=C4\N(C)c5ccc6ccccc6c5C4(C)C)C(C)(C)c4c3ccc3ccccc43)C(=O)N[C@@H](CO)C(=O)N[C@@H](CC(N)=O)C(=O)N[C@@H](CC(=O)O)C(=O)N[C@@H](CCCNC(=N)N)C(=O)N3CCC[C@@H]3C(=O)N3CCC[C@@H]3C(=O)N[C@@H](CC(N)=O)C(=O)N[C@H](C(=O)N[C@@H](CC(C)C)C(=O)N[C@@H](CCC(N)=O)C(=O)N[C@@H](CCCCN)C(=O)N[C@@H](CCCNC(=N)N)C(N)=O)[C@@H](C)CC)C2=O)C(C)C)cc1)C(C)C (some centres undefined)	Active	Active	Active	Active				
CC[C@H](C)[C@@H]([C@@H](CC(=O)N1CCC[C@H]1[C@H](OC)[C@@H](C)C(=O)N[C@H](C)[C@@H](O)c1ccccc1)OC)N(C)C(=O)[C@@H](NC(=O)[C@H](C(C)C)N(C)C(=O)OCc1ccc(NC(=O)[C@H](CCCNC(N)=O)NC(=O)[C@H](NC(=O)CCCCCN2C(=O)CC(SC[C@H](NC(=O)CCCCC[N+]3=C(/C=C/C=C/C=C4\N(C)c5ccc6ccccc6c5C4(C)C)C(C)(C)c4c3ccc3ccccc43)C(=O)N[C@@H](CC(=O)O)C(=O)N[C@@H](Cc3ccc(O)cc3)C(=O)N[C@@H](CCC(=O)O)C(=O)N[C@@H](CCSC)C(=O)N[C@@H](Cc3cnc[nH]3)C(=O)N[C@@H](CC(C)C)C(=O)N[C@@H](Cc3c[nH]c4ccccc34)C(=O)N[C@@H](Cc3c[nH]c4ccccc34)C(=O)NCC(=O)N[C@H](C(=O)N[C@@H](CCC(=O)O)C(=O)N[C@@H](CC(C)C)C(N)=O)[C@H](C)O)C2=O)C(C)C)cc1)C(C)C (some centres undefined)		Active; Compound Showed Minimal Binding	Active	Active; Compound Showed Minimal Binding				
CC[C@H](C)[C@@H]([C@@H](CC(=O)N1CCC[C@H]1[C@H](OC)[C@@H](C)C(=O)N[C@H](C)[C@@H](O)c1ccccc1)OC)N(C)C(=O)[C@@H](NC(=O)[C@H](C(C)C)N(C)C(=O)OCc1ccc(NC(=O)[C@H](CCCNC(N)=O)NC(=O)[C@@H](NC(=O)CCCCCN2C(=O)CC(SC[C@H](N)C(=O)N[C@@H](Cc3ccc(O)cc3)C(=O)N[C@@H](Cc3ccccc3)C(=O)N[C@@H](CC(C)C)C(=O)N[C@H](C(=O)N[C@H](C(=O)N[C@@H](CCCNC(=N)N)C(=O)N[C@@H](CCC(N)=O)C(N)=O)[C@@H](C)O)[C@@H](C)O)C2=O)C(C)C)cc1)C(C)C (some centres undefined) (I: H-CYFLTTRQ-NH2 / II: V[Cit][PABC][NMeV]V[Dil][Dolaproine]-X1; linker I:1-II:N via Hexanoyl(6-succinimido-3yl))					> 100 nM	> 100 nM	> 100 nM	30.9 nM
CC[C@H](C)[C@@H]([C@@H](CC(=O)N1CCC[C@H]1[C@H](OC)[C@@H](C)C(=O)N[C@H](C)[C@@H](O)c1ccccc1)OC)N(C)C(=O)[C@@H](NC(=O)[C@@H](NC)C(C)C)C(C)C (H-[NMeV]V[Dil][Dolaproine]-X1)					0.46 nM	8.63 nM	1.47 nM	1.05 nM
CC[C@H](C)[C@@H]([C@@H](CC(=O)N1CCC[C@H]1[C@H](OC)[C@@H](C)C(=O)N[C@H](C)[C@@H](O)c1ccccc1)OC)N(C)C(=O)[C@@H](NC(=O)[C@H](C(C)C)N(C)C(=O)OCc1ccc(NC(=O)[C@H](CCCNC(N)=O)NC(=O)[C@@H](NC(=O)CCCCCN2C(=O)CC(SC[C@H](N)C(=O)N[C@@H](C)C(=O)N[C@@H](CC(C)C)C(=O)N[C@@H](CC(C)C)C(=O)N[C@@H](C)C(=O)N[C@@H](CC(N)=O)C(=O)N[C@@H](Cc3cnc[nH]3)C(=O)N[C@@H](CCC(=O)O)C(=O)N[C@@H](CCC(=O)O)C(=O)N[C@@H](CC(C)C)C(=O)N[C@@H](Cc3ccccc3)C(=O)N[C@@H](CCC(N)=O)C(=O)N[C@H](C(N)=O)[C@@H](C)O)C2=O)C(C)C)cc1)C(C)C (some centres undefined) (I: H-CALLANHEELFQT-NH2 / II: V[Cit][PABC][NMeV]V[Dil][Dolaproine]-X1; linker I:1-II:N via Hexanoyl(6-succinimido-3yl))					> 100 nM	> 100 nM	> 100 nM	81.4 nM
